From US5418232A, “Diazabicycloalkene derivatives” (Daiichi Pharmaceutical Co., Ltd., priority 1992, dated 1995)

Tests used:
male HOS-Donryu rats = experiment: Antianginal activity, vasopressin-induced ST segment depression; type: in vivo, rat; conditions: for S Value (area of ST segment depression over 5 minutes): i.v., Example 47 0.01, Nifedipine 0.03, Cromakalim 0.01 mg/kg, vasopressin 0.5 U/kg
Description: The test was carried out in accordance with the method of Hiramatsu, et al. (see Japanese Journal of Pharmacology, Vol. 20, p. 313 (1970)). […] A cannula for blood pressure measurement was inserted into the left femoral artery, and a cannula for drug administration was inserted into the left femoral vein. […] Then, ECG was taken every 30 seconds over a period of 5 minutes to observe depression of the ST segment. A control group was given the solvent for the drug (a solution in which 5% dimethyl sulfoxide, 5% polyethylene glycol 200 and 1% cremophor were dissolved in physiological saline).

[1] = tested on: spontaneously hypertensive rats; experiment: Effect on renal blood flow (Doppler probe); type: in vivo, rat; conditions: for Increase in Renal Blood Flow 1 Hr after Administration: oral, dose which reduced blood pressure by about 50 mmHg; for activity in increasing the renal blood flow vs reference drug (in words): vs EMD57283
Description: Twenty-week-old male spontaneously hypertensive rats (body weight: 350-430 g) were anesthetized with pentobarbital (30 mg/kg, i.p.). An incision was made in the abdomen on the left side, and a Doppler probe for blood flow measurement was fitted to the left renal artery, and the code (wire lead) of the probe was passed under the back skin and taken out from the back of the neck. After 1 week from the operation, the code of the probe was connected to a Doppler blood flow meter to start measurement of the renal blood flow. After the renal blood flow reached to a steady state, a test compound was orally administered, and changes in renal blood flow were observed up to 9 hours. The test compound was used at a dose which reduced blood pressure by about 50 mmHg.

Potassium channel = target: T1, Potassium channel (Rattus norvegicus, UniProt Q63563); experiment: Potassium channel opening activity, 86Rb release from excised rat aorta segment; type: cell-based, Wistar rat; conditions: for ECAUC0.2 (effective concentration at which the area under the peak of the 86Rb release rate reached 0.2): rat aorta segment surface-perfused with test compound for 10 minutes; for potassium channel opening activity (in words): conclusion from Table 5
T1 construct: a segment of an excised aorta of a Wistar rat; from tissue; host or cells: excised aorta segment of Wistar rat

[2] = tested on: spontaneously hypertensive rats; experiment: Antihypertensive activity in spontaneously hypertensive rats (oral, tail-cuff); type: in vivo, rat; conditions: for ED (50 mmHg): Rattus norvegicus, systolic blood pressure, read-out: ED50mmHg (effective dose for reducing blood pressure by 50 mmHg); for Max. increase of Heat Rate / Time for Onset of Max. Activity: dose reducing blood pressure by 50 to 60 mmHg
Description: Male spontaneously hypertensive rats (16 to 20-week-old; body weight: 300-400 g) fed ab lib. were forceably given oral administration of a test compound suspended in 0.5% (w/v) carboxymethyl cellulose aqueous solution. After 1, 2, 4, 6, 8, 24, 30 or 48 hours from the administration, the systolic blood pressure was measured by a tail-cuff method described in Arzneimittel-Forschung, Vol. 18, pp. 1285-1287 (1968)).
The antihypertensive activity of the test compound was obtained as an effective dose for reducing blood pressure by 50 mmHg (ED50mmHg). Further, the time of onset of the maximum activity and the maximum increase in heart rate at a dose for reducing blood pressure by 50 to 60 mmHg were measured.
The statistical difference between a test compound and EMD57283 was analyzed by the Student's t-test.

Guinea Pig Tracheae = experiment: Relaxing activity in guinea pig tracheae contracted with 30 mM potassium chloride; type: cell-based; conditions: for EC50: Cavia porcellus, relaxation by 10^-8 g/ml isoproterenol as 100%, read-out: EC50 (concentration inducing 50% relaxation)
Description: Male guinea pigs (body weight: 400-650 g) were sacrificed by exsanguination, and tracheae were excised.
Tracheal responses were measured isometrically using a transducer "EF-601G" (manufactured by Nihon Koden Kogyo Co., Ltd.) and recorded on a multi-pen recorder "R64 GP" (manufactured by Rika Denki Co., Ltd.). The initial tension in the tracheal preparation was set up at 1 g after the preparation had equilibrated for about 60 minutes, a 30 mM potassium chloride was added to cause contraction.

T1 sequence (Q63563 1-1545 isoform Q63563-2): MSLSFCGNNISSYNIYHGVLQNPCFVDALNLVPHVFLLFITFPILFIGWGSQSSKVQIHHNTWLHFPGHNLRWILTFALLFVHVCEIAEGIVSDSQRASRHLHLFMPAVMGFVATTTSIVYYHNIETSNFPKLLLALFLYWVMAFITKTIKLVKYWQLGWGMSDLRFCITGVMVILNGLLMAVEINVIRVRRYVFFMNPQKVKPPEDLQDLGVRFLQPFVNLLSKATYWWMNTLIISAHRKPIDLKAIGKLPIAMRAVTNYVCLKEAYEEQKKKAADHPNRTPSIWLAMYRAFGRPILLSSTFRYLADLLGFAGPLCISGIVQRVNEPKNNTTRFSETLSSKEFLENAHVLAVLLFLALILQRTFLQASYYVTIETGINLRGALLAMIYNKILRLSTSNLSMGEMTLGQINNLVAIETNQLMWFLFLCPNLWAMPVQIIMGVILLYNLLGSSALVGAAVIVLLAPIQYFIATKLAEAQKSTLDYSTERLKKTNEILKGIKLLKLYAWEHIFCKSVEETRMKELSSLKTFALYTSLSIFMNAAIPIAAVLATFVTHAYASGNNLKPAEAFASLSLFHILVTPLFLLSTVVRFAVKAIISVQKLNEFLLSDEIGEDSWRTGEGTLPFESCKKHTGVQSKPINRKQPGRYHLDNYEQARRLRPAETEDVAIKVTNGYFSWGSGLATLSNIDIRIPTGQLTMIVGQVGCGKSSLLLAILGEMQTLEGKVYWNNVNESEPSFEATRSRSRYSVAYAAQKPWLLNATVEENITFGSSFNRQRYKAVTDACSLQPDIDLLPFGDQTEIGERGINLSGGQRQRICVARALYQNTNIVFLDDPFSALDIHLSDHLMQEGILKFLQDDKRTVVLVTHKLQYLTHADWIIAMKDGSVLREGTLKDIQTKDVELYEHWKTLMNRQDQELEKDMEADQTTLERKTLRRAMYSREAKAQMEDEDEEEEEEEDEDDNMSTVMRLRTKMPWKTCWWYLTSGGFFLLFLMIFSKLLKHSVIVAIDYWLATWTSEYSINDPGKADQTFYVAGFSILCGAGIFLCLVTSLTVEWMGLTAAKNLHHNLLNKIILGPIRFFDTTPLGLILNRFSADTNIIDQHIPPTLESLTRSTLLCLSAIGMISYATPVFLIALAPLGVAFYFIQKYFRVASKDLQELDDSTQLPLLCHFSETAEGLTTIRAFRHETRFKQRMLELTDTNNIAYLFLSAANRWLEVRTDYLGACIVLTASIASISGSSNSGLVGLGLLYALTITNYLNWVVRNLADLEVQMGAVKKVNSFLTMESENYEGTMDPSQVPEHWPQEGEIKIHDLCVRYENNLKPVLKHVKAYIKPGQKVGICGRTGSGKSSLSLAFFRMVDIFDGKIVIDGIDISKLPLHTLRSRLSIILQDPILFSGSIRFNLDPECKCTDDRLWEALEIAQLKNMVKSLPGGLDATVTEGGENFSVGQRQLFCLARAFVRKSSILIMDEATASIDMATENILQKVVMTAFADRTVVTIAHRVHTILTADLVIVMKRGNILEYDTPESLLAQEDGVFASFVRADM
T1 sequence (Q63664 whole entry partner, the tested form may be a part): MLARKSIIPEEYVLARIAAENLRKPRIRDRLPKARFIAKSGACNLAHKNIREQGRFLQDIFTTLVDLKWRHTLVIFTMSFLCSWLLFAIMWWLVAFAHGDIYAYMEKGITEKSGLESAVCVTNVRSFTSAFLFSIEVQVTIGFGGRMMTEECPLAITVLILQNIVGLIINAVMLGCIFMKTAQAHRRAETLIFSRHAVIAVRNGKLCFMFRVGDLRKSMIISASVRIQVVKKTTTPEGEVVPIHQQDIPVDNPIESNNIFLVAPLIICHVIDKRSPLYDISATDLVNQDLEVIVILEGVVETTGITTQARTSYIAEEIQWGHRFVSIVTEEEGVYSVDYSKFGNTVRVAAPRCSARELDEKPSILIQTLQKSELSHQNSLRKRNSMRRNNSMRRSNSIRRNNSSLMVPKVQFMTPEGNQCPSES

ECAUC0.2 (effective concentration at which the area under the peak of the 86Rb release rate reached 0.2) (Potassium channel)	EC50 (Guinea Pig Tracheae) [µM]	Compound	S Value (area of ST segment depression over 5 minutes) (male HOS-Donryu rats) [μV.min]	Increase in Renal Blood Flow 1 Hr after Administration [1] [%]	ED (50 mmHg) [2] [mg/kg]	Max. increase of Heat Rate [2] [%]	Time for Onset of Max. Activity [2] [h]	antihypertensive activity (in words) [2]	duration of activity (in words) [2]	potassium channel opening activity (in words) (Potassium channel)	antianginal activity (in words) (male HOS-Donryu rats; 0.01 mg/kg i.v.)	activity in increasing the renal blood flow vs reference drug (in words) [1]	activity in relaxing tracheal smooth muscle vs cromakalim (in words) (Guinea Pig Tracheae)
–	–	COC(=O)C1=C(C)NC(C)=C(C(=O)OC)C1c1ccccc1[N+](=O)[O-] [Nifedipine, reference compound]	393	–	–	–	–	–	–	–	–	–	–
0.16	–	Cn1nc(O[C@@H]2c3cc(C#N)ccc3OC(C)(C)[C@H]2O)ccc1=O [EMD57283, (3S,4R)3,4-Dihydro-4-((1,6-dihydro-1-methyl-6-oxo-3-pyridazinyl)oxy)-2,2-imethyl-3-hydroxy-2H-1-benzopyran-6-carbonitrile, reference compound]	–	10.8 ± 4.1	0.0064	41.3 ± 2.8	2.8 ± 0.7	–	–	–	–	–	–
–	–	C#CCN1N=C(O[C@@H]2c3cc(C#N)ccc3OC(C)(C)[C@H]2O)C2CC2C1=O (relative stereo) [Example 24, (3S, 4R, 1'R*,6'S*)-3,4-dihydro-2,2-dimethyl-3-hydroxy-4-(2-oxo-3-(2-propyn-1-yl)-3,4-diazabicyclo[4.1.D]hept-4-en-5-yloxy)-2H-1-benzopyran-6-carbonitrile]	–	–	0.02	22.2 ± 2.3	5.6 ± 1.2	potent antihypertensive activity	long duration of activity	–	–	–	–
–	–	CC1(C)Oc2ccc(C#N)cc2[C@@H](OC2=NN(Cc3ccc(Cl)cc3Cl)C(=O)C3CC23)[C@@H]1O (relative stereo) [Example 37, (3S,4R,1'R*,6'S*)-4-(3-(2,4-dichlorobenzyl)-2-oxo-3,4-diazabicyclo[4.1.0]hept-4-en-5-yloxy)-3,4-dihydro-2,2-dimethyl-3-hydroxy-2H-1-benzopyran-6-carbonitrile]	–	–	0.035	9.2 ± 1.7	7.6 ± 0.4	potent antihypertensive activity	long duration of activity	–	–	–	–
0.21	–	CC1(C)Oc2ccc(C#N)cc2[C@@H](OC2=NNC(=O)C3CC23)[C@@H]1O (relative stereo) [Example 47, (3S,4R,1'R*,6'S*)-3,4-Dihydro-2,2-dimethyl-3-hydroxy-4-(2-oxo-3,4-diazabicyclo[4.1.0]-hept-4-en-5-yloxy)-2H-1-benzopyran-6-carbonitrile]	109	24.3 ± 13.7	–	–	–	–	–	possesses potassium channel opening activity	significantly reduces the S value	more potent activity in increasing the renal blood flow than the reference drug	–
–	–	CC1(C)Oc2ccc(C#N)cc2[C@@H](OC2=NN(Cc3c(Cl)cccc3Cl)C(=O)C3CC23)[C@@H]1O (relative stereo) [Example 36, (3S,4R,1'R*,6'S*)-4-(3-(2,6-dichlorobenzyl)-2-oxo-3,4-diazabicyclo[4.1.0]hept-4-en-5-yloxy)-3,4-dihydro-2,2-dimethyl-3-hydroxy-2H-1-benzopyran-6-carbonitrile]	–	15.4 ± 4.5	0.4	9.6 ± 1.3	6.8 ± 0.5	potent antihypertensive activity	long duration of activity	–	–	more potent activity in increasing the renal blood flow than the reference drug	–
0.021	–	CN1N=C(O[C@@H]2c3cc(C#N)ccc3OC(C)(C)[C@@]2(C)O)C2CC2C1=O (relative stereo) [Example 56, (3S,4R,1'R*,6'S*)-3,4-Dihydro-3-hydroxy-4-(3-methyl-2-oxo-3,4-diazabicyclo[4.1.0]hept-4-en-5-yloxy)-2,2,3-trimethyl-2H-1-benzopyran-6-carbonitrile]	–	–	0.0023	19.2 ± 0.5	6.4 ± 0.4	potent antihypertensive activity	long duration of activity	possesses potassium channel opening activity	–	–	–
–	3	CC(C)=CCN1N=C(O[C@@H]2c3cc(C#N)ccc3OC(C)(C)[C@H]2O)C2CC2C1=O (relative stereo) [Example 29, (3S,4R,1'R*,6'S*)-3,4-dihydro-2,2-dimethyl-3-hydroxy-4-(3-(3-methyl-2-buten-1-yl)-2-oxo-3,4-diazabicyclo[4.1.0]hept-4-en-5-yloxy)-2H-1-benzopyran-6-carbonitrile]	–	–	–	–	–	–	–	–	–	–	more potent activity in relaxing tracheal smooth muscle than cromakalim
0.18	5.5	C=CCN1N=C(O[C@@H]2c3cc(C#N)ccc3OC(C)(C)[C@H]2O)C2CC2C1=O (relative stereo) [Example 23, (3S,4R,1'R*,6'S*)-4-(3-allyl-2-oxo-3,4-diazabicyclo[4.1.0]hept-4-en-5-yloxy)-3,4-dihydro-2,2-dimethyl-3-hydroxy-2H-1-benzopyran-6-carbonitrile]	–	–	–	–	–	–	–	possesses potassium channel opening activity	–	–	more potent activity in relaxing tracheal smooth muscle than cromakalim
–	5	CCCCN1N=C(O[C@@H]2c3cc(C#N)ccc3OC(C)(C)[C@H]2O)C2CC2C1=O (relative stereo) [Example 32, (3S,4R,1'R*,6'S*)-4-(3-n-butyl-2-oxo-3,4-diazabicyclo(4.1.0]hept-4-en-5-yloxy)-3,4-dihydro-2,2-dimethyl-3-hydroxy-2H-1-benzopyran-6-carbonitrile]	–	–	0.076	22.3 ± 5.9	6.0 ± 0.6	potent antihypertensive activity	long duration of activity	–	–	–	more potent activity in relaxing tracheal smooth muscle than cromakalim
–	–	CC1(C)Oc2ccc(C#N)cc2[C@@H](OC2=NN(Cc3ccccc3)C(=O)[C@H]3C[C@@H]23)[C@@H]1O [Example 21, (3S, 4R, 1'S, 6'R)-4-(3-Benzyl-2-oxo-3,4-diazabicyclo[4.1.0]hept-4-en-5-yloxy)-3,4-dihydro-2,2-dimethyl-3-hydroxy-2H-1-benzopyran-6-carbonitrile]	–	59.4 ± 9.7	0.053	19.7 ± 3.0	6.4 ± 0.5	potent antihypertensive activity	long duration of activity	–	–	more potent activity in increasing the renal blood flow than the reference drug	–

Compound	ECAUC0.2 (effective concentration at which the area under the peak of the 86Rb release rate reached 0.2) (Potassium channel)	EC50 (Guinea Pig Tracheae) [µM]	S Value (area of ST segment depression over 5 minutes) (male HOS-Donryu rats) [μV.min]	Increase in Renal Blood Flow 1 Hr after Administration [1] [%]	ED (50 mmHg) [2] [mg/kg]	Max. increase of Heat Rate [2] [%]	Time for Onset of Max. Activity [2] [h]	antihypertensive activity (in words) [2]	duration of activity (in words) [2]	potassium channel opening activity (in words) (Potassium channel)	antianginal activity (in words) (male HOS-Donryu rats; 0.01 mg/kg i.v.)	activity in increasing the renal blood flow vs reference drug (in words) [1]	activity in relaxing tracheal smooth muscle vs cromakalim (in words) (Guinea Pig Tracheae)
CN1N=C(O[C@@H]2c3cc(C#N)ccc3OC(C)(C)[C@H]2O)C2CC2C1=O (relative stereo) [Example 22, (3S,4R,1'R*,6'S*)-3,4-dihydro-2,2-dimethyl-3-hydroxy-4-(3-methyl-2-oxo-3,4-diazabicyclo(4.1.0]hept-4-en-5-yloxy)-2H-benzopyran-6-carbonitrile]	0.18	–	–	–	–	–	–	–	–	possesses potassium channel opening activity	–	–	–
CC1(C)Oc2ccc(C#N)cc2[C@@H](N2CCCC2=O)[C@@H]1O (relative stereo) [Cromakalim, 3,4trans-3,4-Dihydro-2,2-dimethyl-3-hydroxy-4-(2-oxopyrrolidin-1-yl)-2H-1benzopyran-6-carbonitrile, reference compound]	2.8	49	562	–	–	–	–	–	–	–	–	–	–
